Earlier results on one molecule are cited in US20130280327A1, “ZOLPIDEM-BASED ORODISPERSIBLE PHARMACEUTICAL TABLET” (Sanofi, priority 2010, published 2013).

For this data set the following is noted: hypnotic action, oral, conventional formulations.

With `Cc1ccc(-c2nc3ccc(C)cn3c2CC(=O)N(C)C)cc1` [zolpidem], the duration of action result was “up to 6 hours”.
